Laboratory results reported in patent publication US4025528A, “Thiazole derivatives of benzoic and phenylalkanoic acids” (Shionogi & Co., Ltd., priority 1973, dated 1977).
Like-named read-outs stand apart in the source and are kept apart here.

What was measured:
in vivo [1] = details: mouse, po
Wistar rats [2] = test: Anti-abscess Activity (carrageenin); assay type: in vivo, Wistar rat; details: Rattus norvegicus, read-out: Anti-abscess ED (25%)
Protocol: Carrageenin (2% aqueous solution, 0.5 ml) is subcutaneously injected into the back of Wistar rats (180-200 g, female) and at the same time one-half dose of a test compound is orally given, the other half given 3 hours later. The animals are sacrificed 24 hours after carrageenin and the abscess formed is isolated and weighed. The ED25 is calculated by the Bliss' method.

Wistar rat [3] = test: Effect on Adjuvant Arthritis; assay type: in vivo; details: 120 h
Protocol: 5. Effect on Adjuvant Arthritis
A test compound is orally administered to the arthritic rat twice a day for 5 consecutive days. Five hours after the final medication the change in swelling volume of the arthritic foot is measured. The ED30 is calculated by the Bliss' method.

Wistar rat [4] = test: Anti-granuloma Activity (carrageenin filterpaper); assay type: in vivo; details: 168 h
Protocol: 3. Anti-granuloma Activity
Two circular pieces of filterpaper about 6 mm in diameter, soaking 90 mg of 5% carrageenin solution, are implanted subcutaneously in the abdominal skin of Wistar rat (180-200 g, female). A test drug is orally given once a day for 6 consecutive days. On the 7th day the animals are killed and the amount of granulation tissue deposited, the adrenals and the thymus are weighed. The ED25 is calculated by the Bliss' method.

Wistar rats [5] = test: Anti-edema Activity (carrageenin foot edema); assay type: in vivo, Wistar rat; details: Rattus norvegicus, read-out: Anti-edema ED (30%)
Protocol: An aqueous solution of 1% carrageenin (0.05 ml) is used as phlogistic agent. After 30 minutes Wistar rats (180-200 g, female) are orally administered test compounds, the phalogistic agent is injected subcutaneously into the plantar parts of the foot of rats. The volume of swelling is measured 3 hours after carrageenin, and the anti-edema activity is determined by calculating the ratio of the edematous volume of medicated foot to that of non-medicated foot. […]

in vivo [6] = details: rat, po
Wistar rat [7] = test: Effect of Scald-inflamed Foot; assay type: in vivo; details: 1.5 h, read-out: Scald-inflamed Foot ED (100%)
Protocol: 7. Effect of Scald-inflamed Foot
A test drug is administered orally 90 minutes after scalding and the analgesic activity is evaluated by compressing the foot with a plunger.

DS mice = test: Acetic Acid Writhing Method; assay type: in vivo; details: Mus musculus, read-out: Acetic Acid Writhing ED (50%)
Protocol: 6. Acetic Acid Writhing Method
DS mice (20-23 g, male) are treated with an intraperitoneal injection of 0.1 ml/10 g of 0.6% acetic acid 60 minutes after oral administration of a test drug. The number of times of writhing for 10 minutes is counted. The ED50 is calculated by the Bliss' method.

guinea-pig = test: Anti-erythema Activity (ultraviolet light); assay type: in vivo
Protocol: 4. Anti-erythema Activity
The hair on the back of guinea-pig (300-400 g, male and female) is removed on the day before experiment. Thirty minutes after oral administration of a test drug, 3 circular areas (8 mm in diameter each) on the back of the animal are exposed to ultraviolet light for 60 seconds. Anti-erythema activity is evaluated at 2 hours after irradiation. The ED50 is calculated by Up and Down method of Brownlee et al. [J. Am. Stat. Assoc.

Wistar rat [8] = test: Effect on Yeast-inflamed Foot; assay type: in vivo; details: 2 h, oral, pain threshold two hours later, ED 100%
Protocol: 8. Effect on Yeast-inflamed Foot
A test compound is orally given Wistar rat (180-200 g, female) immediately before subcutaneous injection of 0.1 ml of 20% yeast suspension into the plantar tissue of the foot. Two hours later, the pain threshold is measured by comprissing the foot with a plunger and calculated by the method of Litchfield and Wilcoxon.

Wister rat = test: Anti-pyretic Activity (yeast); assay type: in vivo; details: read-out: Anti-pyretic Activity, dose by which body temperature is reduced 0.5° C.
Protocol: 11. Anti-pyretic Activity
A test compound is orally administered to Wister rat (180-200 g, female) 16 hours after an injection of 2 ml of 15% suspension of yeast into the subcutaneous tissue of the hip of the rat. The rectal temperature is measured every 1 hour for 5 hours. The effective dose is calculated by the Bliss' method.

Wistar rat [9] = test: Foot-licking Method (formaldehyde); assay type: in vivo
Protocol: Thirty minutes after oral administration of a test drug in Wistar rat (180-200 g, female), the effect of the compound on foot-licking syndrome due to irritation by a subcutaneous injection of 0.05 ml of 3.75% formaldehyde into the plantar tissue of the hind-paw is observed for 50 minutes. The ED50 is calculated by the method of Litchfield and Wilcoxon.

[10] = oral, two half doses, 24 hours after carrageenin, ED25
[11] = oral twice a day for 5 days, ED30, read-out: Arthritis ED (30%)
[12] = oral once a day for 6 days, ED25, read-out: Anti-granuloma ED (25%)
[13] = oral, swelling 3 hours after carrageenin, ED 30%
[14] = oral, 90 minutes after scalding, pain threshold, ED 100%
[15] = oral, 60 minutes before 0.6% acetic acid i.p., ED50
[16] = Cavia porcellus, light or radiation study, po, 2 h; read-out: Anti-erythema ED (50%)
[17] = oral, 16 hours after yeast injection
[18] = oral, thirty minutes before formaldehyde, ED50, read-out: Footlicking ED (50%)

SMILES | LD50 at 72 h (in vivo [1]) [mg/kg] | LD50 at 72 h (in vivo [6]) [mg/kg] | ED100 (Wistar rat [8]) [mg/kg] | ED25 (Wistar rats [2]; [10]) [mg/kg] | ED30 (Wistar rat [3]; [11]) [mg/kg] | ED25 (Wistar rat [4]; [12]) [mg/kg] | ED30 (Wistar rats [5]; [13]) [mg/kg] | ED100 (Wistar rat [7]; [14]) [mg/kg] | ED50 (DS mice; [15]) [mg/kg] | ED50 (guinea-pig; [16]) [mg/kg] | ED (0.5 degC reduction) (Wister rat; [17]) [mg/kg] | ED50 (Wistar rat [9]; [18]) [mg/kg] | other results
CC(=O)Oc1ccccc1C(=O)O [Acetylsalicylic Acid, acetylsalicylic acid] | 2000 | 2400 | 250 |  |  |  |  |  |  |  |  |  | ED25 (Wistar rats [2]; po, 24 h): 175 mg/kg; ED30 (Wistar rat [3]; po, read-out: Arthritis ED (30%)): 100 mg/kg; ED25 (Wistar rat [4]; po, read-out: Anti-granuloma ED (25%)): > 500 mg/kg; ED30 (Wistar rats [5]; po, 3 h): 48 mg/kg; ED100 (Wistar rat [7]; po): 260 mg/kg; ED50 (DS mice; po): 180 mg/kg; ED50 (guinea-pig; Cavia porcellus, light or radiation study, po, 2 h, read-out: Anti-erythema ED (50%)): 79 mg/kg; ED (0.5 degC reduction) (Wister rat; po, 16 h): 14 mg/kg; ED50 (Wistar rat [9]; po, read-out: Footlicking ED (50%)): 580 mg/kg
Cc1nc(Oc2ccccc2)sc1C(C)C(=O)O (centres unmarked) [Example 48-140, calcium 2-(2-phenoxy-4-methyl-5-thiazolyl)propionate] | 1190 | 1200 | 110 | 60 | 20 | 230 | 14 | > 500 | 180 | 27 | 23 | 130 | 
CC(C(=O)O)c1ccc(Oc2nccs2)cc1 (centres unmarked) [Example 48-156, 2-[4-(2-thiazolyloxy)phenyl]propionic acid] |  |  | 28 | 6.4 | 4.2 | 13 | 3.8 | 77 | 20 | 20 | 4 | 175 | 
CCCCC1C(=O)N(c2ccccc2)N(c2ccccc2)C1=O [Phenylbutazone, phenylbutazone] |  |  | 130 | 33 | 7.8 | 24 | 48 | 240 | 440 | 26 | 3.8 | 150 | 
